In patent US9399626B2, “2-thiopyrimidinones” (Pfizer Inc., priority 2011, dated 2016):
Counter-ions that a name gives are not always drawn.

target: T1, MPO (purified from human polynuclear leukocytes) (Homo sapiens, UniProt P05164); experiment: MPO Amplex Red Activity Assay; format: biochemical; conditions: Table 1, 2 μM H2O2, pH 7.4
T1 construct: purified from human polynuclear leukocytes; purchased Calbiochem/EMD Biosciences; host or cells: human polynuclear leukocytes (natural source)
Summary of the method: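 Potency is given as kinact/KI: kobs values from 600 s progress curves, minus the uninhibited rate, are fit against inhibitor concentration. Reactions use 2 μM H2O2, 30 μM Amplex Red, pH 7.4 phosphate buffer with NaCl, DTPA and 2% DMSO, started with […] human MPO. Readout is resorufin fluorescence, catalase background subtracted.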

T1 sequence (P05164 279-745 limits assumed): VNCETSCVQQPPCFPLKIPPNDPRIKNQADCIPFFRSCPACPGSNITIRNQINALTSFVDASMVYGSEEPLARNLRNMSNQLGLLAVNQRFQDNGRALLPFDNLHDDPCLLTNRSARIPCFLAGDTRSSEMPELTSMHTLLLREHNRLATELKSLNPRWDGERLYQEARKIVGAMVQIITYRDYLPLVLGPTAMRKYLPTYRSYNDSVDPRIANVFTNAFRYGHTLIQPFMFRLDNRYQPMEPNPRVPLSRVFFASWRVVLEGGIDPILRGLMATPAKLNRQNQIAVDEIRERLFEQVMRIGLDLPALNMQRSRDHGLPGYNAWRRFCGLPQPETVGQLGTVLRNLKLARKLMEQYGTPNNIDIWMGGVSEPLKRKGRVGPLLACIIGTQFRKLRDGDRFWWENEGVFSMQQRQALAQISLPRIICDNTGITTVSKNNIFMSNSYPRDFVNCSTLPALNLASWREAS
T1 sequence (P05164 165-273 limits assumed): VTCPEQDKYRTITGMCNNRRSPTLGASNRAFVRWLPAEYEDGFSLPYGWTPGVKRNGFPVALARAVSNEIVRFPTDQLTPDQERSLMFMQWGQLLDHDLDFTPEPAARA

MPO kinact/Ki | SMILES
6290 1/s per M | COCCn1c(-c2cccc3[nH]ccc23)cc(=O)[nH]c1=S [Example 304, 6-(1H-indol-4-yl)-1-(2-methoxyethyl)-2-thioxo-2,3-dihydropyrimidin-4(1H)-one]
17100 1/s per M | COCCn1c(-c2cc(C)ccc2OC)cc(=O)[nH]c1=S [Example 312, 1-(2-methoxyethyl)-6-(2-methoxy-5-methylphenyl)-2-thioxo-2,3-dihydropyrimidin-4(1H)-one]
33.4 1/s per M | NCCOc1ccccc1-c1cc(=O)[nH]c(=S)n1CCO [Example 52, 6-[2-(2-aminoethoxy)phenyl]-1-(2-hydroxyethyl)-2-thioxo-2,3-dihydropyrimidin-4(1H)-one formate]
4210 1/s per M | NCCn1c(-c2cccc3[nH]ccc23)cc(=O)[nH]c1=S [Example 142, 1-(2-aminoethyl)-6-(1H-indol-4-yl)-2-thioxo-2,3-dihydropyrimidin-4(1H)-one trifluoroacetate]
9740 1/s per M | COc1ccc(-c2cc(=O)[nH]c(=S)n2CCN)c2ccccc12 [Example 185, 1-(2-aminoethyl)-6-(4-methoxy-1-naphthyl)-2-thioxo-2,3-dihydropyrimidin-4(1H)-one hydrochloride]
7520 1/s per M | COCCn1c(-c2cn(C)c3ccccc23)cc(=O)[nH]c1=S [Example 67, 1-(2-methoxyethyl)-6-(1-methyl-1H-indol-3-yl)-2-thioxo-2,3-dihydropyrimidin-4(1H)-one]
2080 1/s per M | CCOc1ccc(-c2cc(=O)[nH]c(=S)n2CCOC)cc1 [Example 311, 6-(4-ethoxyphenyl)-1-(2-methoxyethyl)-2-thioxo-2,3-dihydropyrimidin-4(1H)-one]
7810 1/s per M | COCCn1c(-c2cccc3ccccc23)cc(=O)[nH]c1=S [Example 319, 1-(2-methoxyethyl)-6-(1-naphthyl)-2-thioxo-2,3-dihydropyrimidin-4(1H)-one]
25600 1/s per M | COc1ccc(C)cc1-c1cc(=O)[nH]c(=S)n1CCCN=C(N)N [Example 119, 2-{3-[6-(2-methoxy-5-methylphenyl)-4-oxo-2-thioxo-3,4-dihydropyrimidin-1(2H)-yl]propyl} guanidine]
3390 1/s per M | COc1ccc(-c2cc(=O)[nH]c(=S)n2CCCN)cc1OC [Example 82, 1-(3-aminopropyl)-6-(3,4-dimethoxyphenyl)-2-thioxo-2,3-dihydropyrimidin-4(1H)-one hydrochloride]
9920 1/s per M | COc1ccc(Cl)cc1-c1cc(=O)[nH]c(=S)n1C[C@@H](O)CO [Example 116, 6-(5-chloro-2-methoxyphenyl)-1-[(2R)-2,3-dihydroxypropyl]-2-thioxo-2,3-dihydropyrimidin-4(1H)-one]
41800 1/s per M | COc1ccccc1-c1cc(=O)[nH]c(=S)n1CCCN=C(N)N [Example 103, 2-{3-[6-(2-methoxyphenyl)-4-oxo-2-thioxo-3,4-dihydropyrimidin-1(2H)-yl]propyl} guanidine]
4380 1/s per M | COCCn1c(-c2ccc3ccccc3c2OC)cc(=O)[nH]c1=S [Example 115, 1-(2-methoxyethyl)-6-(1-methoxy-2-naphthyl)-2-thioxo-2,3-dihydropyrimidin-4(1H)-one]
7380 1/s per M | COCCn1c(-c2cc(F)ccc2OC)cc(=O)[nH]c1=S [Example 317, 6-(5-fluoro-2-methoxyphenyl)-1-(2-methoxyethyl)-2-thioxo-2,3-dihydropyrimidin-4(1H)-one]
1750 1/s per M | COCCn1c(-c2ccc(C)cc2)cc(=O)[nH]c1=S [Example 285, 1-(2-methoxyethyl)-6-(4-methylphenyl)-2-thioxo-2,3-dihydropyrimidin-4(1H)-one]
3290 1/s per M | NCCn1c(-c2ccccc2OCCO)cc(=O)[nH]c1=S [Example 53, 1-(2-aminoethyl)-6-[2-(2-hydroxyethoxy)phenyl]-2-thioxo-2,3-dihydropyrimidin-4(1H)-one hydrochloride]
4520 1/s per M | COCCn1c(-c2c[nH]c3ccccc23)cc(=O)[nH]c1=S [Example 33, 6-(1H-indol-3-yl)-1-(2-methoxyethyl)-2-thioxo-2,3-dihydropyrimidin-4(1H)-one]
1580 1/s per M | Cl.NCCCOc1ccccc1-c1cc(=O)[nH]c(=S)n1CCN [Example 79, 1-(2-aminoethyl)-6-[2-(3-aminopropoxy)phenyl]-2-thioxo-2,3-dihydropyrimidin-4(1H)-one hydrochloride]

Continued, compound first:

SMILES | MPO kinact/Ki
COc1ccc(-c2cc(=O)[nH]c(=S)n2CC(C)(C)O)c(OC)c1 [Example 194, 6-(2,4-dimethoxyphenyl)-1-(2-hydroxy-2-methylpropyl)-2-thioxo-2,3-dihydropyrimidin-4(1H)-one] | 2560 1/s per M
COc1ccc(-c2cc(=O)[nH]c(=S)n2C[C@H]2CCCO2)c(OC)c1 [Example 214, 6-(2,4-dimethoxyphenyl)-1-[(2R)-tetrahydrofuran-2-ylmethyl]-2-thioxo-2,3-dihydropyrimidin-4(1H)-one] | 10700 1/s per M
COCCn1c(-c2ccc(OC)cc2Cl)cc(=O)[nH]c1=S [Example 334, 6-(2-chloro-4-methoxyphenyl)-1-(2-methoxyethyl)-2-thioxo-2,3-dihydropyrimidin-4(1H)-one] | 6840 1/s per M
COCCn1c(-c2cccnc2)cc(=O)[nH]c1=S [Example 279, 1-(2-methoxyethyl)-6-pyridin-3-yl-2-thioxo-2,3-dihydropyrimidin-4(1H)-one] | 386 1/s per M
COc1cc(OC)c(-c2cc(=O)[nH]c(=S)n2CCCN)cc1OC [Example 125, 1-(3-aminopropyl)-2-thioxo-6-(2,4,5-trimethoxyphenyl)-2,3-dihydropyrimidin-4(1H)-one hydrochloride] | 10600 1/s per M
COc1ccc(C)nc1-c1cc(=O)[nH]c(=S)n1CCO [Example 22, 1-(2-hydroxyethyl)-6-(3-methoxy-6-methylpyridin-2-yl)-2-thioxo-2,3-dihydropyrimidin-4(1H)-one] | 6340 1/s per M
COCCn1c(-c2cc(OC)c(Cl)cc2OC)cc(=O)[nH]c1=S [Example 233, 6-(4-chloro-2,5-dimethoxyphenyl)-1-(2-methoxyethyl)-2-thioxo-2,3-dihydropyrimidin-4(1H)-one] | 2510 1/s per M
COCCn1c(-c2cncnc2)cc(=O)[nH]c1=S [Example 280, 3-(2-methoxyethyl)-2-thioxo-2,3-dihydro-4,5′-bipyrimidin-6(1H)-one] | 430 1/s per M
COCCn1c(-c2ccn[nH]2)cc(=O)[nH]c1=S [Example 278, 1-(2-methoxyethyl)-6-(1H-pyrazol-5-yl)-2-thioxo-2,3-dihydropyrimidin-4(1H)-one] | 1560 1/s per M
COCCn1c(-c2ccc(N(C)C)nc2)cc(=O)[nH]c1=S [Example 165, 6-[6-(dimethylamino)pyridin-3-yl]-1-(2-methoxyethyl)-2-thioxo-2,3-dihydropyrimidin-4(1H)-one] | 1280 1/s per M

same assay, conditions: Table 1A, 2 μM H2O2, pH 7.4

MPO kinact/Ki | SMILES
3630 1/s per M | NC(=O)Cn1c(-c2ccccc2OCCO)cc(=O)[nH]c1=S [Example 349, 2-(6-(2-(2-Hydroxyethoxy)phenyl)-4-oxo-2-thioxo-3,4-dihydropyrimidin-1(2H)-yl)acetamide]
5890 1/s per M | NCCNC(=O)Cn1c(-c2ccccc2OCCO)cc(=O)[nH]c1=S [Example 428, N-(2-aminoethyl)-2-{6-[2-(2-hydroxyethoxy)phenyl]-4-oxo-2-thioxo-3,4-dihydropyrimidin-1(2H)-yl}acetamide]
17400 1/s per M | COc1ccc(-c2cc(=O)[nH]c(=S)n2CCC(=O)NCCN)c(OC)c1 [Example 444, N-(2-aminoethyl)-3-[6-(2,4-dimethoxyphenyl)-4-oxo-2-thioxo-3,4-dihydropyrimidin-1(2H)-yl]propanamide]
1200 1/s per M | COc1ccc(F)cc1-c1cc(=O)[nH]c(=S)n1CCONC(=N)N [Example 419, 1-{2-[6-(5-fluoro-2-methoxyphenyl)-4-oxo-2-thioxo-3,4-dihydropyrimidin-1(2H)-yl]ethoxy}guanidine]

The remaining lines, values behind:

SMILES | MPO kinact/Ki
COc1ccc(-c2cc(=O)[nH]c(=S)n2CC(=O)NCC(C)(C)N)c(OC)c1 [Example 429, N-(2-amino-2-methylpropyl)-2-[6-(2,4-dimethoxyphenyl)-4-oxo-2-thioxo-3,4-dihydropyrimidin-1(2H)-yl]acetamide] | 6620 1/s per M
COc1cccc(-c2cc(=O)[nH]c(=S)n2CC(N)=O)c1 [Example 384, 2-[6-(3-methoxyphenyl)-4-oxo-2-thioxo-3,4-dihydropyrimidin-1(2H)-yl]acetamide] | 2930 1/s per M
COc1ccc(-c2cc(=O)[nH]c(=S)n2CC(=O)N[C@@H]2CC[C@H]2N)c(OC)c1 [Example 441, N-[(1R,2R)-2-aminocyclobutyl]-2-[6-(2,4-dimethoxyphenyl)-4-oxo-2-thioxo-3,4-dihydropyrimidin-1(2H)-yl]acetamide] | 3260 1/s per M
COc1ccc(Cl)cc1-c1cc(=O)[nH]c(=S)n1C[C@H](C)N [Example 361, 1-[(2S)-2-aminopropyl]-6-(5-chloro-2-methoxyphenyl)-2-thioxo-2,3-dihydropyrimidin-4(1H)-one] | 2060 1/s per M
COc1ccc(-c2cc(=O)[nH]c(=S)n2CC(=O)N[C@H](C)[C@@H](C)N)c(OC)c1 [Example 433, N-[(2R,3R)-3-aminobutan-2-yl]-2-[6-(2,4-dimethoxyphenyl)-4-oxo-2-thioxo-3,4-dihydropyrimidin-1(2H)-yl]acetamide] | 3490 1/s per M
